# Test results from patent US10829473B2, “Modulators of the cystic fibrosis transmembrane conductance regulator protein and methods of use” (AbbVie Overseas S.Á.R.L., priority 2017, dated 2020).
# Where two headings read alike, the source gives them in different places. Marks after values point to notes of the source that are not given here.
# Target: T1, F508delCFTR (Homo sapiens, UniProt P13569, DEL508-508)
# T1 construct: expressed in transfected cells; host or cells: CFBE41o- human lung derived epithelial cells (CFBE41o-F508delCFTR-HRP), doxycycline-inducible
# T1 sequence (P13569 with tags, fused parts or gaps DEL508-508): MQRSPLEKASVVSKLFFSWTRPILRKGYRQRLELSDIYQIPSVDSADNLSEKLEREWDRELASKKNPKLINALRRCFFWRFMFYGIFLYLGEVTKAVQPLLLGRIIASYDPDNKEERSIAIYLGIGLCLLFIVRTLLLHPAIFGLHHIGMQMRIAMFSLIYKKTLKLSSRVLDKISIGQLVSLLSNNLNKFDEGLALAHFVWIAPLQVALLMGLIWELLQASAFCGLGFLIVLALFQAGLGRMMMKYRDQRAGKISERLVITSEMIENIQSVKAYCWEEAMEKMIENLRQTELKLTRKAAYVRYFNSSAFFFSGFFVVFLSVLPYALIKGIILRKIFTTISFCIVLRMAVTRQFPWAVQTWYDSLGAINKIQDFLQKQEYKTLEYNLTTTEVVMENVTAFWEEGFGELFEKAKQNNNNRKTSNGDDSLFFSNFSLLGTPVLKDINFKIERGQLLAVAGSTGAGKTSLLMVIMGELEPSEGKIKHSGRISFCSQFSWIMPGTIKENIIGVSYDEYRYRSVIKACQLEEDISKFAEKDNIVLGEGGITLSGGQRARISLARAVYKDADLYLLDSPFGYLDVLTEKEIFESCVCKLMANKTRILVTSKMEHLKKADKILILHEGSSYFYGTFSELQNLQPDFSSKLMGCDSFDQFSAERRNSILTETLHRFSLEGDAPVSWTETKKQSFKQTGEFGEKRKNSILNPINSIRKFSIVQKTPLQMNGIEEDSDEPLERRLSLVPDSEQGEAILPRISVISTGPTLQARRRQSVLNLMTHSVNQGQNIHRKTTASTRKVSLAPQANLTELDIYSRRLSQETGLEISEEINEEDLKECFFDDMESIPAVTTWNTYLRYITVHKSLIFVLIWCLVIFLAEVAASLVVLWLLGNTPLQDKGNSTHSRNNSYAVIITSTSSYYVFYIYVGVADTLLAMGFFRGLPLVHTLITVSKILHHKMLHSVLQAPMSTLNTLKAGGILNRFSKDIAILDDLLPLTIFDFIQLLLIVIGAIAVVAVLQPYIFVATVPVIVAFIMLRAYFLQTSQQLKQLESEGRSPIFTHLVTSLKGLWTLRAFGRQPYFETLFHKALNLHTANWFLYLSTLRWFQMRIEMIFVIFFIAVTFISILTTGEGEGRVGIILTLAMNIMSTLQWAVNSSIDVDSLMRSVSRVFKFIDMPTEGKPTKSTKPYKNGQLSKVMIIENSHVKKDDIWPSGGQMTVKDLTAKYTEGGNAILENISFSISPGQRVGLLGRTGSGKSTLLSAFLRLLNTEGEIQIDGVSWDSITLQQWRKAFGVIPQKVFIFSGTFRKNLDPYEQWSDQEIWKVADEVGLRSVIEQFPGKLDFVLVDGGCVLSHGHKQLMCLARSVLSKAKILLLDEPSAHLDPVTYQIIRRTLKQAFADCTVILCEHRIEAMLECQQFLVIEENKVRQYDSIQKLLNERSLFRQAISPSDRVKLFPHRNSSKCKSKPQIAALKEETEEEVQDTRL
# Assay: Cell Surface Expression-Horse Radish Peroxidase (CSE-HRP) Assay;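 on EC50 (with co-corrector): co-corrector chromenyl benzoic acid corrector at 2 or 3 µM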;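 on Maximum % activity (without co-corrector): % of on-plate positive control chromenyl benzoic acid corrector at 2 or 3 µM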
# Type: cell-based
# Settings: for Maximum % activity (with co-corrector) / Emax: maximum at any tested concentration; for Emax: read-out: Maximum % activity (without co-corrector)
# How it was run: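 Corrector compounds were given as 8-point 3-fold series from 20 or 30 μM, with or without a 2 μM co-corrector, for 18-24 h at 33 °C. Surface HRP was read by luminol luminescence as % of positive control; variable-Hill-slope sigmoidal fitting gave EC50 from triplicate plates.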
# [1] = test compound alone, without co-corrector, read-out: EC50 (without co-corrector)
# [2] = with co-corrector, read-out: EC50 (with co-corrector)
# [3] = test compound with co-corrector
# [4] = test compound with co-corrector, read-out: EC50 (with co-corrector)
# [5] = test compound without co-corrector
# [6] = test compound without co-corrector, read-out: EC50 (without co-corrector)
smiles,measurement,setting,value
COc1ncc(C(F)(F)F)cc1C1(C(=O)NS(=O)(=O)c2cccc3nc(C)ccc23)CC1 [II-9],EC50,[1],3 to 10 µM
same,Maximum % activity (with co-corrector),with co-corrector,+++ (≥350)
same,EC50,[2],< 3 µM
same,Emax,without co-corrector,> 150%
COc1ncc(C2CCC2)c(C)c1C1(C(=O)NS(=O)(=O)c2cccc3cnn(C)c23)CC1 [II-43],EC50,[1],< 3 µM
same,Maximum % activity (with co-corrector),with co-corrector,+++ (≥350)
same,EC50,[2],< 3 µM
same,Emax,without co-corrector,50 to 150%
"CCc1cnc(N2CCC(OC)CC2)c(C2(C(=O)NS(=O)(=O)c3cccc4[nH]ccc34)CC2)c1 [GII-58, 1-[5-ethyl-2-(4-methoxypiperidin-1-yl)pyridin-3-yl]-N-(1H-indole-4-sulfonyl)cyclopropane-1-carboxamide]",Maximum % activity (with co-corrector),[3],+++ (≥350)
same,EC50,[4],3 to 10 µM
same,Emax,[5],> 150%
same,EC50,[6],3 to 10 µM
COc1cc(C2(C(=O)NS(=O)(=O)c3cccc4ncccc34)CC2)c(OC(F)F)cn1 [GIII-19],EC50 (with co-corrector),[3],++^a
same,Maximum % activity (with co-corrector),[3],++ (≥150 and <350)
same,EC50 (without co-corrector),[5],++^a
same,Emax,[5],50 to 150%
"COc1ccc(OC)c(C2(C(=O)NS(=O)(=O)c3cccc4ncccc34)CC2)c1 [Example I-29, 1-(2,5-dimethoxyphenyl)-N-(quinoline-5-sulfonyl)cyclopropane-1-carboxamide]",EC50,[1],< 3 µM
same,Maximum % activity (with co-corrector),with co-corrector,+++ (≥350)
same,EC50,[2],< 3 µM
same,Emax,without co-corrector,> 150%
"O=C(NS(=O)(=O)c1cccc2c1CCCN2)C1(c2cc(C3CCC3)cnc2N2CCCC2)CC1 [Example GI-31, 1-[5-cyclobutyl-2-(pyrrolidin-1-yl)pyridin-3-yl]-N-(1,2,3,4-tetrahydroquinoline-5-sulfonyl)cyclopropane-1-carboxamide]",Maximum % activity (with co-corrector),[3],+++ (≥350)
same,EC50,[4],< 3 µM
same,Emax,[5],> 150%
same,EC50,[6],< 3 µM
"CC(C)Oc1cnc(C2CCC2)cc1C1(C(=O)NS(=O)(=O)c2cccc3c2CCCN3)CC1 [GII-26, 1-{2-cyclobutyl-5-[(propan-2-yl)oxy]pyridin-4-yl}-N-(1,2,3,4-tetrahydroquinoline-5-sulfonyl)cyclopropane-1-carboxamide]",Maximum % activity (with co-corrector),[3],+++ (≥350)
same,EC50,[4],3 to 10 µM
same,Emax,[5],> 150%
same,EC50,[6],3 to 10 µM
"O=C(NS(=O)(=O)c1ccc(-n2cccn2)cc1)C1(c2cccc(Cl)c2)CC1 [Example III-73, 1-(3-chlorophenyl)-N-[4-(1H-pyrazol-1-yl)benzene-1-sulfonyl]cyclopropane-1-carboxamide]",EC50,[1],> 10 µM
same,Maximum % activity (with co-corrector),with co-corrector,+ (<150)
same,EC50,[2],> 10 µM
same,Emax,without co-corrector,< 50%
"CC(C)Oc1ncc(C2CCC2)cc1C1(C(=O)NS(=O)(=O)c2cccc3c2CCCN3)CC1 [GII-25, 1-{5-cyclobutyl-2-[(propan-2-yl)oxy]pyridin-3-yl}-N-(1,2,3,4-tetrahydroquinoline-5-sulfonyl)cyclopropane-1-carboxamide]",Maximum % activity (with co-corrector),[3],+++ (≥350)
same,EC50,[4],3 to 10 µM
same,Emax,[5],> 150%
same,EC50,[6],3 to 10 µM
"COc1ncc(C2CCC2)cc1C1(C(=O)NS(=O)(=O)c2cccc3c2CCCN3)CC1 [Example I-6, 1-(5-cyclobutyl-2-methoxypyridin-3-yl)-N-(1,2,3,4-tetrahydroquinoline-5-sulfonyl)cyclopropane-1-carboxamide]",EC50,[1],< 3 µM
same,Maximum % activity (with co-corrector),with co-corrector,+++ (≥350)
same,EC50,[2],< 3 µM
same,Emax,without co-corrector,> 150%
"COc1ccc(C2CCC2)cc1C1(C(=O)NS(=O)(=O)c2cccc3ccn(C)c23)CC1 [Example I-59, 1-(5-cyclobutyl-2-methoxyphenyl)-N-(1-methyl-1H-indole-7-sulfonyl)cyclopropane-1-carboxamide]",EC50,[1],< 3 µM
same,Maximum % activity (with co-corrector),with co-corrector,+++ (≥350)
same,EC50,[2],< 3 µM
same,Emax,without co-corrector,> 150%
"COc1ccc(C)c(OC)c1C1(C(=O)NS(=O)(=O)c2cccc3ccccc23)CC1 [Example I-40, 1-(2,6-dimethoxy-3-methylphenyl)-N-(naphthalene-1-sulfonyl)cyclopropane-1-carboxamide]",EC50,[1],< 3 µM
same,Maximum % activity (with co-corrector),with co-corrector,+++ (≥350)
same,EC50,[2],< 3 µM
same,Emax,without co-corrector,> 150%
COc1ncc(C)cc1C1(C(=O)NS(=O)(=O)c2cccc3c2CCCN3)CC1 [II-10],EC50,[1],3 to 10 µM
same,Maximum % activity (with co-corrector),with co-corrector,+++ (≥350)
same,EC50,[2],3 to 10 µM
same,Emax,without co-corrector,> 150%
COCc1ccc(OC)c(C2(C(=O)NS(=O)(=O)c3cccc4ncccc34)CC2)c1 [II-49],EC50,[1],< 3 µM
same,Maximum % activity (with co-corrector),with co-corrector,+++ (≥350)
same,EC50,[2],< 3 µM
same,Emax,without co-corrector,> 150%
"O=C(NS(=O)(=O)c1ccccc1)C1(c2ccccc2Cl)CC1 [Example III-32, N-(benzenesulfonyl)-1-(2-chlorophenyl)cyclopropane-1-carboxamide]",EC50,[1],3 to 10 µM
same,Maximum % activity (with co-corrector),with co-corrector,++ (≥150 and <350)
same,EC50,[2],3 to 10 µM
same,Emax,without co-corrector,< 50%
"CCc1cnc(N(C)C)c(C2(C(=O)NS(=O)(=O)c3cccc4nc(C)ccc34)CC2)c1 [GII-48, 1-[2-(dimethylamino)-5-ethylpyridin-3-yl]-N-(2-methylquinoline-5-sulfonyl)cyclopropane-1-carboxamide]",Maximum % activity (with co-corrector),[3],+++ (≥350)
same,EC50,[4],3 to 10 µM
same,Emax,[5],> 150%
same,EC50,[6],3 to 10 µM
"COc1ccc(S(=O)(=O)NC(=O)C2(c3ccc(Cl)cc3Cl)CC2)cc1OC [Example III-25, 1-(2,4-dichlorophenyl)-N-(3,4-dimethoxybenzene-1-sulfonyl)cyclopropane-1-carboxamide]",EC50,[1],> 10 µM
same,Maximum % activity (with co-corrector),with co-corrector,+ (<150)
same,EC50,[2],3 to 10 µM
same,Emax,without co-corrector,< 50%
COc1cc(C2(C(=O)NS(=O)(=O)c3cccc4[nH]ncc34)CC2)c(OCC(C)C)cn1 [II-91],EC50,[1],3 to 10 µM
same,Maximum % activity (with co-corrector),with co-corrector,+++ (≥350)
same,EC50,[2],< 3 µM
same,Emax,without co-corrector,> 150%
"COC(=O)c1csc(S(=O)(=O)NC(=O)C2(c3ccc(Cl)cc3Cl)CC2)c1OC [Example III-11, methyl 5-{[1-(2,4-dichlorophenyl)cyclopropane-1-carbonyl]sulfamoyl}-4-methoxythiophene-3-carboxylate]",EC50,[1],> 10 µM
same,Maximum % activity (with co-corrector),with co-corrector,+ (<150)
same,EC50,[2],> 10 µM
same,Emax,without co-corrector,< 50%
"CCOc1ccc2nc(S(=O)(=O)NC(=O)C3(c4cccc(Cl)c4)CC3)sc2c1 [Example III-56, 1-(3-chlorophenyl)-N-(6-ethoxy-1,3-benzothiazole-2-sulfonyl)cyclopropane-1-carboxamide]",EC50,[1],> 10 µM
same,Maximum % activity (with co-corrector),with co-corrector,+ (<150)
same,EC50,[2],> 10 µM
same,Emax,without co-corrector,< 50%
"COc1ccc(Br)cc1C1(C(=O)NS(=O)(=O)c2cccc3ccccc23)CC1 [Example I-1, 1-(5-bromo-2-methoxyphenyl)-N-(naphthalene-1-sulfonyl)cyclopropane-1-carboxamide]",EC50,[1],< 3 µM
same,Maximum % activity (with co-corrector),with co-corrector,+++ (≥350)
same,EC50,[2],< 3 µM
same,Emax,without co-corrector,> 150%
"COc1cnc(OC(C)C)c(C2(C(=O)NS(=O)(=O)c3cccc4ncccc34)CC2)c1 [Example GI-74, 1-{5-methoxy-2-[(propan-2-yl)oxy]pyridin-3-yl}-N-(quinoline-5-sulfonyl)cyclopropane-1-carboxamide]",Maximum % activity (with co-corrector),[3],+++ (≥350)
same,EC50,[4],< 3 µM
same,Emax,[5],> 150%
same,EC50,[6],3 to 10 µM
"CC(C)OC1CCN(c2ncc(C3CCC3)cc2C2(C(=O)NS(=O)(=O)c3cccc4ncccc34)CC2)CC1 [Example GI-105, 1-(5-cyclobutyl-2-{4-[(propan-2-yl)oxy]piperidin-1-yl}pyridin-3-yl)-N-(quinoline-5-sulfonyl)cyclopropane-1-carboxamide]",Maximum % activity (with co-corrector),[3],+++ (≥350)
same,EC50,[4],< 3 µM
same,Emax,[5],> 150%
same,EC50,[6],< 3 µM
"COc1cnc(OC(C)C)c(C2(C(=O)NS(=O)(=O)c3cccc4nc(C)ccc34)CC2)c1 [Example GI-76, 1-{5-methoxy-2-[(propan-2-yl)oxy]pyridin-3-yl}-N-(2-methylquinoline-5-sulfonyl)cyclopropane-1-carboxamide]",Maximum % activity (with co-corrector),[3],+++ (≥350)
same,EC50,[4],< 3 µM
same,Emax,[5],> 150%
same,EC50,[6],< 3 µM
"CCc1ccc(OC(C)C)c(C2(C(=O)NS(=O)(=O)c3cccc4nc(C)ccc34)CC2)n1 [Example GI-54, 1-{6-ethyl-3-[(propan-2-yl)oxy]pyridin-2-yl}-N-(2-methylquinoline-5-sulfonyl)cyclopropane-1-carboxamide]",Maximum % activity (with co-corrector),[3],+++ (≥350)
same,EC50,[4],3 to 10 µM
same,Emax,[5],> 150%
same,EC50,[6],3 to 10 µM
"CCOc1ncc(CC)cc1C1(C(=O)NS(=O)(=O)c2cccc3ncccc23)CC1 [Example GI-116, 1-(2-ethoxy-5-ethylpyridin-3-yl)-N-(quinoline-5-sulfonyl)cyclopropane-1-carboxamide]",Maximum % activity (with co-corrector),[3],+++ (≥350)
same,EC50,[4],< 3 µM
same,Emax,[5],> 150%
same,EC50,[6],3 to 10 µM
"Cc1cnc(OCC(C)C)c(C2(C(=O)NS(=O)(=O)c3cccc4ncccc34)CC2)c1 [Example GI-42, 1-[5-methyl-2-(2-methylpropoxy)pyridin-3-yl]-N-(quinoline-5-sulfonyl)cyclopropane-1-carboxamide]",Maximum % activity (with co-corrector),[3],+++ (≥350)
same,EC50,[4],< 3 µM
same,Emax,[5],> 150%
same,EC50,[6],< 3 µM
"Cc1ccc2c(S(=O)(=O)NC(=O)C3(c4cc(C5CCC5)cnc4OC(C)C)CC3)cccc2n1 [Example GI-23, 1-{5-cyclobutyl-2-[(propan-2-yl)oxy]pyridin-3-yl}-N-(2-methylquinoline-5-sulfonyl)cyclopropane-1-carboxamide]",EC50,[1],< 3 µM
same,Maximum % activity (with co-corrector),with co-corrector,+++ (≥350)
same,EC50,[2],< 3 µM
same,Emax,without co-corrector,> 150%
